Experimental findings from patent US20050096360A1, “Inhibitors of semicarbazide-sensitive amine oxidase (SSAO) and VAP-1 mediated adhesion useful for treatment of diseases” (priority 2003, published 2005) are described below.

Counter-ions that a name gives are not always drawn. Like-named read-outs stand apart in the source and are kept apart here.

Data set [1] relates to C57B1/6 female mice. The data set can be described thus: Acute toxicity studies in mice. The data set is classed as in vivo. The note with it: for acute toxicity effects observed: 100 mg/kg i.v.; for dose causing convulsions and labored breathing: i.p. (see Table 2). As for the experimental part: (§1) Intraperitoneal (i.p.) and intravenous (i.v.) LD50 values for the compounds of Examples 8 and 10, as well as mofegiline, the allylamine compound described in Example 18, were determined in mice. Six-week old C57B1/6 female mice were divided in groups of five and administered a single i.p or i.v. injection of compound dissolved in PBS (10-100 mg/kg in 100 ul i.v.; 30-500 mg/kg in 200 ul i.p.). Control groups were administered the same volume of PBS i.p. or i.v. Appearance and overt behavior were noted daily, and body weight was measured before compound administration (Day 1) and on Days, 3, 5 and 7. After seven days, animals were euthanized and their liver, spleen and kidneys weighted.
(§2) Acute toxicity effects for mofegiline included tremors (40 mg/kg i.v.; 100 mg/kg i.p.) and clonic convulsions and labored breathing (100 mg/kg i.v.; 200 mg/kg i.p.). […] All deaths occurred within 24 hours after drug administration. […] Thus, there is no indication of the cause of death for any of the compounds tested.

The nature of data set [2]: Acute toxicity studies in mice. The note with it: female, C57B1/6, mouse, in vivo, Day 7 values. The data set is classed as in vivo. As for the experimental part: as §1, §2
For data set [3] the following is noted: in vivo.
Data set [4] concerns the target T1, SSAO (bovine plasma amine oxidase, PAO) (Bos taurus, UniProt Q29437).
T1 construct: Bovine plasma amine oxidase (PAO) was purchased from Worthington Biochemical; purchased Worthington Biochemical (Lakewood, N.J.)
T1 sequence (Q29437 17-762): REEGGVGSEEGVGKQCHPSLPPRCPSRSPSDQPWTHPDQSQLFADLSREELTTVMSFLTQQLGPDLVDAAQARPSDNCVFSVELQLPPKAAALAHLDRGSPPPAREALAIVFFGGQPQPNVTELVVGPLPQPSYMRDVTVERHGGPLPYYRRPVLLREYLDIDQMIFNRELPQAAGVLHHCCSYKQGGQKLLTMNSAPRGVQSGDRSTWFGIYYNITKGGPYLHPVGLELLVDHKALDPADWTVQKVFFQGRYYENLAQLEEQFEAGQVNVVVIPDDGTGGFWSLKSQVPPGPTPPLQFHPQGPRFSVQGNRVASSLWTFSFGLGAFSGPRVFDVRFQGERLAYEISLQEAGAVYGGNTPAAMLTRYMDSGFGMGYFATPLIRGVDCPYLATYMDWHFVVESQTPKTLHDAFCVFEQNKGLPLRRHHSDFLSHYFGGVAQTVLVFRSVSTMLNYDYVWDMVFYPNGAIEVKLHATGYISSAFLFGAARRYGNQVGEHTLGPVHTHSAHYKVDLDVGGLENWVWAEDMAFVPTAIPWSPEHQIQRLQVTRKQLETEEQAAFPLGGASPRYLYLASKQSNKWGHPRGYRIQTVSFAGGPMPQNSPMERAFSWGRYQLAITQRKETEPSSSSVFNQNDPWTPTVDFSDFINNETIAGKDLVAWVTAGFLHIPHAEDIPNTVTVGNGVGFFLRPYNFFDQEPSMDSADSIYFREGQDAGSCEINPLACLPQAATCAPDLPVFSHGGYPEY
The data set can be described thus: In vitro inhibition of SSAO activity, coupled colorimetric method. The data set is classed as biochemical. Conditions: 30 min preincubation, benzylamine substrate; read-out: SSAO Inhibitory Activity IC50. As for the experimental part: SSAO activity was measured using the coupled colorimetric method essentially as described for monoamine oxidase and related enzymes (Holt A. et al. (1997) Anal. Biochem. 244:384). Bovine plasma amine oxidase (PAO) was purchased from Worthington Biochemical (Lakewood, N.J.) and used as a source of SSAO for activity measurements. The SSAO assay was performed in 96 well microtitre plates as follows. A pre-determined amount of inhibitor diluted in 0.2 M potassium phosphate buffer, pH 7.6, was added to each well, if required. The amount of inhibitor varied in each assay but was generally at a final concentration of between 10 nM and 10 μM. Controls lacked inhibitor. In order to study the effects of potential inhibitors 50 μl of inhibitor solution were preincubated for 30 min at 37° C. with 0.4 mU of PAO in an a total volume of 130 μl of 0.2 M potassium phosphate buffer pH 7.6. Assays were then started by addition of 20 μl 10 mM benzylamine substrate and incubated for 20 min at 37° C. The following reagents were then added to a final reaction volume of 200 μl, 50 μl of freshly made chromogenic solution containing […] vanillic acid (Sigma # V-2250), […] 4-aminoantipyrine (Sigma # A-4328) and 12 U/ml horseradish peroxidase (Sigma # P-8250) in order to cause a change of 0.5 OD A490 per hour. This was within the linear response range of the assay. The plates were incubated for 1 hr at 37° C. and the increase in absorbance, reflecting SSAO activity, was measured at 490 nm using a microplate spectrophotometer (Power Wave 40, Bio-Tek Inst.). Inhibition was presented as percent inhibition compared to control after correcting for background absorbance and IC50 values calculated using GraphPad Prism software.

The mark [5] stands for this setting: ip, single i.p. injection, read-out: LD50 intraperitoneal.
Where [6] appears, read: iv, single i.v. injection, read-out: LD50 intravenous.

Regarding `C=C(CNN)c1ccc(F)cc1.Cl` [Example 8, N-[2-(4′-fluorophenyl)-allyl]-hydrazine Hydrochloride], in data set [1], the “acute toxicity effects observed” value is “only tremor”; the “dose causing convulsions and labored breathing” value is listed as “greater than 350 mg/kg”. The LD50 at 7 days in data set [2] (setting [5]) was determined as 350 mg/kg. Moreover, the LD50 at 7 days in data set [2] (setting [6]) is greater than 100 mg/kg. The “bioavailability after intravenous and intraperitoneal administration” value (“bioavailability” for short) in data set [3] is reported as “readily bioavailable”. In addition, in data set [4], the half-maximal inhibitory concentration (IC50) is 32 nM.

For the molecule `C=C(CNN)c1ccccc1` [Example 2, Hydrochloride], the “bioavailability” value in data set [3] is given as “readily bioavailable”. In data set [4], the IC50 was 35 nM.

With `Cl.NNC/C(=C/F)c1ccccc1` [Example 10, (E)-1-fluoro-2-phenyl-3-hydrazinopropene Hydrochloride], in data set [1], the “acute toxicity effects observed” value was “only tremor”; the “dose causing convulsions and labored breathing” value is on record as “greater than 250 mg/kg”. For the same molecule, the LD50 at 7 days in data set [2] (setting [5]) came out at 250 mg/kg. The LD50 at 7 days in data set [2] (setting [6]) was greater than 100 mg/kg. For the same molecule, the “bioavailability” value in data set [3] is given as “readily bioavailable”. Moreover, in data set [4], the IC50 amounted to 65 nM.

One may read the LD50 as the dose at which mortality reaches 50%. Usually IC50 stands for the midpoint of a concentration-inhibition curve.
